In US10703757B2, “Compounds and methods for CDK8 modulation and indications therefor” (Plexxikon Inc., priority 2016, dated 2020):

Assays:
[1] = tested on: CDK8 (phosphorylation of STAT1 at serine 727 in A549 cells); experiment: Cell based Phospho-STAT1 assay (IFNγ-stimulated A549 cells, AlphaLISA); details: Homo sapiens, A549, A549 cells, phospho-STAT1 after IFNγ stimulation
How it was run: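 A549 cells given serial compound dilutions for 1 h at 37 °C, then stimulated with IFNγ at 10 ng/mL final for 30 min. Lysate STAT1 Ser727 phosphorylation measured by AlphaLISA; % inhibition vs stimulated/unstimulated DMSO controls, IC50 by nonlinear regression.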

[2] = tested on: CDK8 (TCF/LEF luciferase reporter in HCT116 cells); experiment: Cell based TCF/LEF reporter assay (HCT116+TCF/LEF luciferase); details: Homo sapiens, HCT-116, 24 h
From the text: Determine Inhibitor Activity Against CDK8 in Cell Based TCF/LEF Reporter Assay
The colorectal carcinoma cell line HCT116 was stably transduced with lentivirus encoding the TCF/LEF promoter upstream of a luciferase reporter gene (Qiagen) and single cell clones expressing this construct (referred to as HCT116+TCF/LEF) were isolated. HCT116 express endogenous mutant β-catenin^3, resulting in up-regulation of transcription through the TCF/LEF promoter. Expression of the TCF/LEF reporter construct in HCT116 results in constitutive expression of luciferase. Treatment of the cells with inhibitors of components of the β-catenin signaling pathway (such as CDK8) results in decreased expression of luciferase. The assay is performed as follows. The HCT116+TCF/LEF cell line is seeded in a 96 well plate in 50 μL of culture media at 1×10^4 cells/well and incubated at 37° C. overnight. Serial dilutions of compounds (in total volume of 50 μL culture media) are added to the cells and incubated at 37° C. for 24 hours. 4 wells of DMSO treated cells serve as high controls and cells treated with 10 uM of the reference compound CCT251545 (a known CDK8 inhibitor)^4 serve as low controls. The viability of the cells is assayed by the addition of […] reagent (Promega) followed by 30 minute incubation at 37° C. and quantification of the fluorescent signal (Ex400/Em505). The luciferase expression is then assayed by the addition of 25 μL ONE-Glo reagent (Promega) followed by 10 minute incubation at room temperature and quantification of the luminescence signal. The luminescence signal is normalized to the fluorescence signal to correct for any loss in cell viability over the 24 hour compound incubation period. The percentage inhibition at individual concentrations relative to high and low controls is calculated. The data are analyzed by using nonlinear regression to generate IC50 values.

| Compound | IC50 [1] | IC50 [2] |
| --- | --- | --- |
| N#CC1CC=C(c2nccn3ncc(-c4ccc(OCCOC5CCOCC5)cc4)c23)CC1 (stereo not drawn) [Compound P-0146, 4-(3-(4-(2-((tetrahydro-2H-pyran-4-yl)oxy)ethoxy)phenyl)pyrazolo[1,5-a]pyrazin-4-yl) cyclohex-3-ene-1-carbonitrile] | 0.1 to 100 nM | 0.1 to 100 nM |
| N#CC1CC=C(c2nccn3ncc(-c4cc5ccccc5s4)c23)CC1 (stereo not drawn) [Compound P-0073, 4-(3-(benzo[b]thiophen-2-yl)pyrazolo[1,5-a]pyrazin-4-yl)cyclohex-3-ene-1-carbonitrile] | 0.1 to 100 nM | 0.1 to 100 nM |
| CC1=NC2(CCN(c3cccc4ncc(C#Cc5cnn(C)c5)n34)CC2)C(=O)N1 [Compound P-0276, 2-methyl-8-(3-((1-methyl-1H-pyrazol-4-yl)ethynyl)imidazo[1,2-a]pyridin-5-yl)-1,3,8-triazaspiro[4.5]dec-1-en-4-one] | 1000 to 10000 nM | 1000 to 10000 nM |
| O=C(C1CCC(c2cccn3ncc(-c4ccc(-c5cnn(C(F)F)c5)cc4)c23)CC1)N1CCC1 (stereo not drawn) [Compound P-0315, azetidin-1-yl(4-(3-(4-(1-(difluoromethyl)-1H-pyrazol-4-yl)phenyl)pyrazolo[1,5-a]pyridin-4-yl)cyclohexyl)methanone] | 100 to 1000 nM | 100 to 1000 nM |
| Cn1cc(-c2ccc(-c3cnn4cccc(N5CCC(F)(C(N)=O)CC5)c34)cc2)cn1 [Compound P-0285, 4-fluoro-1-(3-(4-(1-methyl-1H-pyrazol-4-yl)phenyl)pyrazolo[1,5-a]pyridin-4-yl)piperidine-4-carboxamide] | 100 to 1000 nM | 100 to 1000 nM |
| N#CC1CCN(c2c(-c3ccc4c(c3)NC(=O)C4)cnc3[nH]ccc23)CC1 [Compound P-0189, 1-(5-(2-oxoindolin-6-yl)-1H-pyrrolo[2,3-b]pyridin-4-yl)piperidine-4-carbonitrile] | 0.1 to 100 nM | 0.1 to 100 nM |
| N#CC1CC=C(c2cccn3ncc(-c4ccc5cncnc5c4)c23)CC1 (stereo not drawn) [Compound P-0119, 4-(3-(quinazolin-7-yl)pyrazolo[1,5-a]pyridin-4-yl)cyclohex-3-ene-1-carbonitrile] | 0.1 to 100 nM | 100 to 1000 nM |
| CC(C)(C#Cc1cccn2ncc(-c3ccc(-c4cnn(CC(F)(F)F)c4)cc3)c12)C(N)=O [Compound P-0468, 2,2-dimethyl-4-(3-(4-(1-(2,2,2-trifluoroethyl)-1H-pyrazol-4-yl)phenyl)pyrazolo[1,5-a]pyridin-4-yl)but-3-ynamide] | 0.1 to 100 nM | 0.1 to 100 nM |
| CS(=O)(=O)Nc1ccc2cc(-c3cnn4cccc(C5=CCC(C#N)CC5)c34)ccc2c1 (stereo not drawn) [Compound P-0199, N-(6-(4-(4-cyanocyclohex-1-en-1-yl)pyrazolo[1,5-a]pyridin-3-yl)naphthalen-2-yl)methanesulfonamide] | 0.1 to 100 nM | 0.1 to 100 nM |
| COC(=O)c1ccc(-c2cnn3cccc(C4=CCC(C#N)CC4)c23)cc1C (stereo not drawn) [Compound P-0123, methyl 4-(4-(4-cyanocyclohex-1-en-1-yl)pyrazolo[1,5-a]pyridin-3-yl)-2-methylbenzoate] | 0.1 to 100 nM | 0.1 to 100 nM |
| CC(C)(C)C(=O)Nc1ccc(-c2cnn3cccc(N4CCC(C#N)CC4)c23)cc1 [Compound P-0254, N-(4-(4-(4-cyanopiperidin-1-yl)pyrazolo[1,5-a]pyridin-3-yl)phenyl)pivalamide] | 100 to 1000 nM | 100 to 1000 nM |
| CC(C)(O)Cn1cc(-c2ccc(-c3cnc4[nH]ccc4c3N3CCC(C#N)CC3)cc2)cn1 [Compound P-0329, 1-(5-(4-(1-(2-hydroxy-2-methylpropyl)-1H-pyrazol-4-yl)phenyl)-1H-pyrrolo[2,3-b]pyridin-4-yl)piperidine-4-carbonitrile] | 0.1 to 100 nM | 0.1 to 100 nM |
| CNC(=O)C(C)(C)C#Cc1cccn2ncc(-c3ccc(-c4cnn(C)c4)cc3)c12 [Compound P-0296, N,2,2-trimethyl-4-(3-(4-(1-methyl-1H-pyrazol-4-yl)phenyl)pyrazolo[1,5-a]pyridin-4-yl)but-3-ynamide] | 100 to 1000 nM | 1000 to 10000 nM |
| CC(C)(C)COc1ccc(-c2cnn3cccc(N4CCC(C#N)CC4)c23)cc1 [Compound P-0266, 1-(3-(4-(neopentyloxy)phenyl)pyrazolo[1,5-a]pyridin-4-yl)piperidine-4-carbonitrile] | 1000 to 10000 nM | 1000 to 10000 nM |
| CC(C)(O)Cn1ncc2cc(-c3cnn4ccnc(C5=CCC(C#N)CC5)c34)ccc21 (stereo not drawn) [Compound P-0111, 4-(3-(1-(2-hydroxy-2-methylpropyl)-1H-indazol-5-yl)pyrazolo[1,5-a]pyrazin-4-yl)cyclohex-3-ene-1-carbonitrile] | 0.1 to 100 nM | 0.1 to 100 nM |
| COc1ncc(C#Cc2cnc3cccc(N4CCC(C#N)CC4)n23)cn1 [Compound P-0313, 1-(3-((2-methoxypyrimidin-5-yl)ethynyl)imidazo[1,2-a]pyridin-5-yl)piperidine-4-carbonitrile] | 100 to 1000 nM | 100 to 1000 nM |
| Cn1ncc2cc(-c3cnn4cccc(N5CCC6(CCNC6=O)CC5)c34)ccc21 [Compound P-0169, 8-(3-(1-methyl-1H-indazol-5-yl)pyrazolo[1,5-a]pyridin-4-yl)-2,8-diazaspiro[4.5]decan-1-one] | 0.1 to 100 nM | 0.1 to 100 nM |
| N#CC1CC=C(c2nccn3ncc(-c4ccc5c(cnn5CC(F)(F)F)c4)c23)CC1 (stereo not drawn) [Compound P-0063, 4-(3-(1-(2,2,2-trifluoroethyl)-1H-indazol-5-yl)pyrazolo[1,5-a]pyrazin-4-yl)cyclohex-3-ene-1-carbonitrile] | 0.1 to 100 nM | 0.1 to 100 nM |
| Cc1nc2ccc(-c3cnc4[nH]ccc4c3C3=CCC(C#N)CC3)cc2s1 (stereo not drawn) [Compound P-0164, 4-(5-(2-methylbenzo[d]thiazol-6-yl)-1H-pyrrolo[2,3-b]pyridin-4-yl)cyclohex-3-ene-1-carbonitrile] | 0.1 to 100 nM | 0.1 to 100 nM |
| Cc1nc2ccc(-c3cnn4cccc(C#CC(C)(C)O)c34)cc2s1 [Compound P-0215, 2-methyl-4-(3-(2-methylbenzo[d]thiazol-6-yl)pyrazolo[1,5-a]pyridin-4-yl)but-3-yn-2-ol] | 100 to 1000 nM | 100 to 1000 nM |
| N#CC1CCN(c2cccn3ncc(-c4ccc(NC(=O)OCc5ccccc5)cc4)c23)CC1 [Compound P-0259, benzyl (4-(4-(4-cyanopiperidin-1-yl)pyrazolo[1,5-a]pyridin-3-yl)phenyl)carbamate] | 100 to 1000 nM | 100 to 1000 nM |
| N#CC1CCN(c2cccn3ncc(-c4ccc(OC5CCCCC5)cc4)c23)CC1 [Compound P-0265, 1-(3-(4-(cyclo-hexyloxy)phenyl)pyrazolo[1,5-a]pyridin-4-yl)piperidine-4-carbonitrile] | 1000 to 10000 nM | 1000 to 10000 nM |
| N#CC1(c2ccccc2)CCN(c2cccc3ncc(-c4ccc(-c5cnn(C(F)F)c5)cc4)n23)CC1 [Compound P-0322, 1-(3-(4-(1-(difluoromethyl)-1H-pyrazol-4-yl)phenyl)imidazo[1,2-a]pyridin-5-yl)-4-phenylpiperidine-4-carbonitrile] | 100 to 1000 nM | 100 to 1000 nM |
| COc1ccc2ccc(-c3cnn4ccnc(C5=CCC(C#N)CC5)c34)cc2n1 (stereo not drawn) [Compound P-0165, 4-(3-(2-methoxyquinolin-7-yl)pyrazolo[1,5-a]pyrazin-4-yl)cyclohex-3-ene-1-carbonitrile] | 100 to 1000 nM | 1000 to 10000 nM |
